# Patent publication US20220062240A1, “METHODS OF TREATING CANCER USING A CLK INHIBITOR” (BioSplice Therapeutics, Inc., priority 2018, published 2022)
# Where two headings read alike, the source gives them in different places.
# Legend:
# [1] = test system: liver cancer (3 cell lines); assay: CellTiter-Glo Viability Assay, liver cancer; type: cell-based; details: Homo sapiens, inhibition of cancer cell proliferation
# CLK3 = CLK3 (Homo sapiens, UniProt P49761); assay: CLK3 kinase activity assay (Z-lyte, Ser/Thr 18 peptide)
# Chain of CLK3 (P49761 whole entry): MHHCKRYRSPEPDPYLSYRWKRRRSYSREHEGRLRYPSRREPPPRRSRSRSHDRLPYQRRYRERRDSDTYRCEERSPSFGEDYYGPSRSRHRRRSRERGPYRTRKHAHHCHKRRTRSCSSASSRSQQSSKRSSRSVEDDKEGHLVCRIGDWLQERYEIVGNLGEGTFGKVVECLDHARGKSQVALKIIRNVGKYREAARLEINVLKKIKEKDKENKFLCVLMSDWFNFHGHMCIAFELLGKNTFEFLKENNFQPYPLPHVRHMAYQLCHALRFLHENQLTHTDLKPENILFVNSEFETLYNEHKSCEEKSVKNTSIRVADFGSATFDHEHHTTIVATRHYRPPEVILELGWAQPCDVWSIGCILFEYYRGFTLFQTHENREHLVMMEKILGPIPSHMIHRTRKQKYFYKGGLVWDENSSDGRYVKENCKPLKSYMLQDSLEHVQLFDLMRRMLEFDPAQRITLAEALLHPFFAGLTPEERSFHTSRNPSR
# [2] = test system: pancreatic cancer (8 cell lines); assay: CellTiter-Glo Viability Assay, pancreatic cancer; type: cell-based; details: Homo sapiens, inhibition of cancer cell proliferation
# [3] = test system: prostate cancer (5 cell lines); assay: CellTiter-Glo Viability Assay, prostate cancer; type: cell-based; details: Homo sapiens
# CLK2 = target: T1, CLK2 (Homo sapiens, UniProt P49760); assay: CLK2 kinase activity assay (Z-lyte, Ser/Thr 6 peptide); type: biochemical; details: recombinant CLK2 kinase, ATP 60 μM; read-out: EC50
# T1 construct: purchased Thermo Fisher (Life Technologies), Z'-LYTE Kinase Assay Kits
# T1 sequence (P49760 whole entry): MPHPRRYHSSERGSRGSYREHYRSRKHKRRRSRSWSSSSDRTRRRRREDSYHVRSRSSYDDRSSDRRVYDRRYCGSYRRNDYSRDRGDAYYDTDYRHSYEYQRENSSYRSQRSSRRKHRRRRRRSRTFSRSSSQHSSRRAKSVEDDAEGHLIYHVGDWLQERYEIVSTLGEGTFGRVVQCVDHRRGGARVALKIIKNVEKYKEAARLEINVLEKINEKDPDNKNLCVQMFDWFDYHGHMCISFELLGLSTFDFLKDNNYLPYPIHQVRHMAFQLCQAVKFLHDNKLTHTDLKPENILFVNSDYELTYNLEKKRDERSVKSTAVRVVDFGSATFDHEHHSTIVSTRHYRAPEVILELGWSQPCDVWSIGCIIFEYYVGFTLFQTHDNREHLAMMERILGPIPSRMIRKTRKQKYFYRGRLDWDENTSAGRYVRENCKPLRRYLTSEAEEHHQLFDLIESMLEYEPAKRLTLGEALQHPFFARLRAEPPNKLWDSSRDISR
# Procedure: All reactions were performed in duplicate.
# [4] = test system: colorectal cancer (6 cell lines); assay: CellTiter-Glo Viability Assay, colorectal cancer; type: cell-based; details: Homo sapiens, inhibition of cancer cell proliferation
# [5] = test system: haematopoietic & lymphoid tumors (13 cell lines); assay: CellTiter-Glo Viability Assay, haematopoietic & lymphoid tumors; type: cell-based; details: Homo sapiens, inhibition of cancer cell proliferation
# [6] = test system: lung cancer (4 cell lines); assay: CellTiter-Glo Viability Assay, lung cancer; type: cell-based; details: Homo sapiens, inhibition of cancer cell proliferation
# HCC1599 = assay: CellTiter-Glo Viability Assay, breast cancer; type: cell-based; details: Homo sapiens, 96 h; HCC1599, breast cancer, four days; read-out: EC50
# T47D = assay: CellTiter-Glo Viability Assay, breast cancer; type: cell-based; details: Homo sapiens, 96 h, breast cancer, four days, read-out: EC50
# BT-549 = assay: CellTiter-Glo Viability Assay, breast cancer; type: cell-based; details: Homo sapiens, 96 h; BT-549, breast cancer, four days; read-out: EC50
# MCF7 = assay: CellTiter-Glo Viability Assay, breast cancer; type: cell-based; details: Homo sapiens, 96 h; MCF7, breast cancer, four days; read-out: EC50
# ZR-75-1 = assay: CellTiter-Glo Viability Assay, breast cancer; type: cell-based; details: Homo sapiens, 96 h; ZR-75-1, breast cancer, four days; read-out: EC50
# DU4475 = assay: CellTiter-Glo Viability Assay, breast cancer; type: cell-based; details: Homo sapiens, DU-4475, 96 h; DU4475, breast cancer, four days; read-out: EC50
# CAMA1 = assay: CellTiter-Glo Viability Assay, breast cancer; type: cell-based; details: Homo sapiens, CAMA-1, 96 h; CAMA1, breast cancer, four days; read-out: EC50
# MDA-MB-231-Luc = assay: CellTiter-Glo Viability Assay, breast cancer; type: cell-based; details: Homo sapiens, 96 h; MDA-MB-231-Luc, breast cancer, four days; read-out: EC50
# all 50 cell lines = assay: CellTiter-Glo Viability Assay, average across all cell lines; type: cell-based; details: Homo sapiens; across all 50 cell lines; read-out: average EC50 for inhibition of cancer cell proliferation
# How it was run: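 Human cancer cell lines from breast, colorectal, haematopoietic/lymphoid, liver, lung, ovarian, pancreatic and prostate tumours were seeded at 300-3,000 cells/well and exposed to compound in duplicate for four days at 37° C, 5% CO2. Viable cells were measured by ATP luminescence; EC50 values came from dose-response curves.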
# [7] = test system: ovarian cancer (4 cell lines); assay: CellTiter-Glo Viability Assay, ovarian cancer; type: cell-based; details: Homo sapiens, inhibition of cancer cell proliferation
smiles,measurement,setting,value
O=C(Nc1cncc(-c2ccc3[nH]nc(-c4cc5cnccc5[nH]4)c3c2)c1)C1CCCCC1 [Compound 47],EC50,"[1]; SNU-398, SNU398 cell line, read-out: Liver cancer, EC50 SNU398",57 nM
same,EC50,"[1]; HEPG2 cell line, read-out: Liver cancer, EC50 HEPG2",371 nM
same,EC50,"[1]; PLC/PRF/5 cell line, read-out: Liver cancer, EC50 PLC/PRF/5",1820 nM
same,EC50,CLK3,17.6 nM
same,EC50,"[2]; BXPC-3, BxPC3 cell line, read-out: Pancreatic cancer, EC50 BxPC3",770 nM
same,EC50,"[2]; CAPAN-1, Capan1 cell line, read-out: Pancreatic cancer, EC50 Capan1",761 nM
same,EC50,"[2]; Capan-2, Capan2 cell line, read-out: Pancreatic cancer, EC50 Capan2",540 nM
same,EC50,"[2]; MIA PaCa-2 cell line, read-out: Pancreatic cancer, EC50 MIA PaCa-2",112 nM
same,EC50,"[2]; PANC 05.04 cell line, read-out: Pancreatic cancer, EC50 PANC 05.04",791 nM
same,EC50,"[2]; PANC-1 cell line, read-out: Pancreatic cancer, EC50 PANC-1",1780 nM
same,EC50,"[2]; UPAFII cell line, read-out: Pancreatic cancer, EC50 UPAFII",357 nM
same,EC50,"[3]; DU-145, read-out: Prostate cancer EC50 Du-145",459 nM
same,EC50,"[3]; PC-3, PC3 cell line, inhibition of cancer cell proliferation, read-out: Prostate cancer EC50 PC3",322 nM
same,EC50,"[3]; 22Rv1 cell line, inhibition of cancer cell proliferation, read-out: Prostate cancer EC50 22Rv1",283 nM
same,EC50,"[3]; LNCap clone FGC cell line, inhibition of cancer cell proliferation, read-out: Prostate cancer EC50 LNCap clone FGC",965 nM
same,EC50,"[3]; VCaP (Sigma) cell line, inhibition of cancer cell proliferation, read-out: Prostate cancer EC50 VCaP (Sigma)",574 nM
same,EC50,CLK2,1.3 nM
same,EC50,"[4]; HCT-116, HCT116 cell line, read-out: Colorectal cancer, EC50 (μM) HCT116",0.402 µM
same,EC50,"[4]; HT-29, HT29 cell line, read-out: Colorectal cancer, EC50 (μM) HT29",1.43 µM
same,EC50,"[4]; SW-620, SW620 cell line, read-out: Colorectal cancer, EC50 (μM) SW620",0.164 µM
same,EC50,"[4]; DLD-1 cell line, read-out: Colorectal cancer, EC50 (μM) DLD-1",0.658 µM
same,EC50,"[4]; SW48 cell line, read-out: Colorectal cancer, EC50 (μM) SW48",0.164 µM
same,EC50,"[4]; SW480 cell line, read-out: Colorectal cancer, EC50 (μM) SW480",0.22 µM
same,EC50,"[5]; DND41, DND-41 cell line, read-out: Haematopoietic & Lymphoid tumors, EC50 (μM) DND-41",0.129 µM
same,EC50,"[5]; MV4-11, MV-4-11 cell line, read-out: Haematopoietic & Lymphoid tumors, EC50 (μM) MV-4-11",0.07 µM
same,EC50,"[5]; Rec1, REC-1 cell line, read-out: Haematopoietic & Lymphoid tumors, EC50 (μM) REC-1",0.453 µM
same,EC50,"[5]; SU-DHL-4, SUDHL4 cell line, read-out: Haematopoietic & Lymphoid tumors, EC50 (μM) SUDHL4",0.14 µM
same,EC50,"[5]; HL-60 cell line, read-out: Haematopoietic & Lymphoid tumors, EC50 (μM) HL-60",0.769 µM
same,EC50,"[5]; JM1 cell line, read-out: Haematopoietic & Lymphoid tumors, EC50 (μM) JM1",0.075 µM
same,EC50,"[5]; JURKAT, Clone E6-1 cell line, read-out: Haematopoietic & Lymphoid tumors, EC50 (μM) JURKAT, Clone E6-1",0.466 µM
same,EC50,"[5]; JeKo-1 cell line, read-out: Haematopoietic & Lymphoid tumors, EC50 (μM) JeKo-1",0.048 µM
same,EC50,"[5]; KASUMI-1 cell line, read-out: Haematopoietic & Lymphoid tumors, EC50 (μM) KASUMI-1",0.25 µM
same,EC50,"[5]; Loucy cell line, read-out: Haematopoietic & Lymphoid tumors, EC50 (μM) Loucy",0.136 µM
same,EC50,"[5]; MOLT-4 cell line, read-out: Haematopoietic & Lymphoid tumors, EC50 (μM) MOLT-4",0.404 µM
same,EC50,"[5]; TF-1 cell line, read-out: Haematopoietic & Lymphoid tumors, EC50 (μM) TF-1",0.861 µM
same,EC50,"[5]; TOLEDO cell line, read-out: Haematopoietic & Lymphoid tumors, EC50 (μM) TOLEDO",0.077 µM
same,EC50,"[6]; A-427, A427 cell line, read-out: Lung cancer, EC50 (μM) A427",0.14 µM
same,EC50,"[6]; HCC78, HCC-78 cell line, read-out: Lung cancer, EC50 (μM) HCC-78",0.666 µM
same,EC50,"[6]; NCI-H460 cell line, read-out: Lung cancer, EC50 (μM) NCI-H460",2.64 µM
same,EC50,"[6]; NCI-H522 cell line, read-out: Lung cancer, EC50 (μM) NCI-H522",0.157 µM
same,EC50,HCC1599,75 nM
same,EC50,T47D,468 nM
same,EC50,BT-549,409 nM
same,EC50,MCF7,1960 nM
same,EC50,ZR-75-1,358 nM
same,EC50,DU4475,77 nM
same,EC50,CAMA1,210 nM
same,EC50,MDA-MB-231-Luc,407 nM
same,EC50,all 50 cell lines,516 nM
same,EC50,"[7]; PA-1, PA1 cell line, read-out: Ovarian cancer, EC50 (μM) PA1",0.403 µM
same,EC50,"[7]; TOV112D, TOV-112D cell line, read-out: Ovarian cancer, EC50 (μM) TOV-112D",0.192 µM
same,EC50,"[7]; OV-90 cell line, read-out: Ovarian cancer, EC50 (μM) OV-90",0.567 µM
same,EC50,"[7]; OVCAR-3 cell line, read-out: Ovarian cancer, EC50 (μM) OVCAR-3",0.179 µM
